According to the NIST ThermoML archive (doi:10.1016/j.jct.2006.06.001):

Experiments:
[1] = 81.5 kPa, Liquid
[2] = xn = mol fraction of the nth substance listed; settings: 81.5 kPa, Liquid

CC(C)O [propan-2-ol]
[1]
Settings	mass density [kg/m3]
293.15 K	785.1
303.15 K	776.63
313.15 K	767.85
323.15 K	758.68
333.15 K	749.06
343.15 K	738.91

COCCO [2-methoxyethan-1-ol] + CCCO
mass density [kg/m3], [2]
Settings	293.15 K	303.15 K	313.15 K	323.15 K	333.15 K	343.15 K
x1 = 0.0845	817.73	809.55	801.23	792.73	783.99	774.97
x1 = 0.1559	829.58	821.29	812.86	804.25	795.42	786.31
x1 = 0.2391	843.36	834.94	826.39	817.66	808.72	799.51
x1 = 0.3146	855.77	847.26	838.61	829.78	820.75	811.47
x1 = 0.4015	869.91	861.29	852.53	843.61	834.47	825.11
x1 = 0.479	882.45	873.74	864.89	855.88	846.68	837.25
x1 = 0.5597	895.42	886.62	877.69	868.6	859.32	849.83
x1 = 0.6365	907.69	898.82	889.81	880.65	871.31	861.76
x1 = 0.7183	920.73	911.78	902.7	893.47	884.08	874.48
x1 = 0.7939	932.73	923.71	914.56	905.28	895.83	886.17
x1 = 0.8775	945.88	936.8	927.59	918.24	908.74	899.05
x1 = 0.9553	957.99	948.84	939.57	930.18	920.63	910.9

COCCO [2-methoxyethan-1-ol]
[1]
Settings	mass density [kg/m3]
293.15 K	964.86
303.15 K	955.68
313.15 K	946.38
323.15 K	936.95
333.15 K	927.38
343.15 K	917.64

COCCO [2-methoxyethan-1-ol] + CC(C)O
mass density [kg/m3], [2]
Settings	293.15 K	303.15 K	313.15 K	323.15 K	333.15 K	343.15 K
x1 = 0.0823	800.06	791.49	782.64	773.45	763.86	753.79
x1 = 0.1565	813.56	804.91	796	786.79	777.21	767.2
x1 = 0.2367	828.13	819.4	810.43	801.18	791.6	781.64
x1 = 0.3166	842.63	833.83	824.81	815.54	805.96	796.02
x1 = 0.4015	858.01	849.14	840.08	830.78	821.21	811.31
x1 = 0.4766	871.62	862.69	853.59	844.26	834.69	824.82
x1 = 0.5605	886.76	877.79	868.64	859.3	849.72	839.87
x1 = 0.6403	901.1	892.08	882.9	873.54	863.96	854.14
x1 = 0.7179	914.98	905.92	896.72	887.34	877.76	867.96
x1 = 0.7925	928.26	919.16	909.94	900.55	890.96	881.18
x1 = 0.8593	940.12	931	921.74	912.34	902.77	892.99
x1 = 0.9585	957.65	948.49	939.2	929.78	920.21	910.45

CC(O)CO (stereo not given) [1,2-propanediol]
[1]
Settings	mass density [kg/m3]
293.15 K	1036.3
303.15 K	1028.89
313.15 K	1021.35
323.15 K	1013.68
333.15 K	1005.86
343.15 K	997.86

CCCO [propan-1-ol]
[1]
Settings	mass density [kg/m3]
293.15 K	803.61
303.15 K	795.57
313.15 K	787.39
323.15 K	779.02
333.15 K	770.42
343.15 K	761.51

COCCO [2-methoxyethan-1-ol] + CC(O)CO
mass density [kg/m3], [2]
Settings	293.15 K	303.15 K	313.15 K	323.15 K	333.15 K	343.15 K
x1 = 0.0745	1030.87	1023.34	1015.67	1007.87	999.89	991.75
x1 = 0.1669	1024.12	1016.42	1008.59	1000.6	992.48	984.19
x1 = 0.2365	1019.06	1011.22	1003.26	995.17	986.94	978.54
x1 = 0.3194	1013.05	1005.07	996.96	988.73	980.35	971.81
x1 = 0.3946	1007.6	999.48	991.25	982.88	974.38	965.73
x1 = 0.4791	1001.49	993.22	984.85	976.34	967.7	958.9
x1 = 0.5625	995.51	987.1	978.58	969.93	961.14	952.2
x1 = 0.6331	990.47	981.94	973.3	964.53	955.63	946.55
x1 = 0.7266	983.82	975.12	966.32	957.38	948.31	939.08
x1 = 0.8081	978.11	969.27	960.32	951.24	942.02	932.64
x1 = 0.8752	973.43	964.47	955.4	946.21	936.87	927.36
x1 = 0.9658	967.23	958.12	948.88	939.52	930.01	920.33
